This is an account of results in patent publication US11299493B2, “Heterocyclic compounds and uses thereof” (NUVATION BIO INC., priority 2017, dated 2022).

One experiment concerns the target WEE1 kinase enzyme (Homo sapiens (Human), UniProt P30291). The experiment in a line: WEE1 IC50 determination, LanthaScreen Terbium Labeled TR-FRET kinase assay. Format: biochemical. The note with it: WEE1 enzyme 1 nM, ATP 10 μM, 1 h. The protocol: IC50 values of compounds against WEE1 kinase enzyme were determined by LanthaScreen™ Terbium Labeled TR-FRET assay. […] After 1 h, […] stop solution containing Terbium labeled antibody (4 nM) (#PV3529, Invitrogen, Life Technologies Grand Island, N.Y.) and EDTA (#E5134, Sigma, St-Louis, Mo.) (20 mM) in TR-FRET dilution buffer (#PV3574, Invitrogen, Life Technologies Grand Island, N.Y.) was added. Readings were taken in a Synergy Neo Plate reader (BioTek, Winooski) at single excitation of 340 nm and Dual emission at 495 nm and 520 nm respectively.
The % activity of test samples was calculated as (Sample−Min)*100/(Max−Min). [Max: DMSO control, complete reaction with enzyme & DMSO and Min: No enzyme & DMSO].

The test system of a further experiment is A549 cells. The experiment in a line: Cytotoxicity assay (resazurin) in A549 cells. The experiment is classed as cell-based. The conditions noted are these: Homo sapiens, A549, 96 hr, read-out: Cell Viability IC50 A549. The method, then:
(§1) Cells were allowed to grow at 37° C. for 24 hr in 5% CO2 environment (culture conditions) in a Nuaire incubator (humidified). Serially diluted test compounds (100 μL) within the desired testing concentration ranges were added to the culture plate were further incubated in culture conditions for 72 hr and 96 hr for A427 and A549 respectively. The experiment was terminated at the designated incubation time by replacing the medium with 100 μL of 1 mM of resazurin (R7017; Sigma) prepared in respective culture medium, and the plates were further incubated in culture conditions for 4-6 hr. Fluorescence was recorded using a multimodal plate reader (Biotek Synergy Neo) at an excitation wavelength of 535 nm and emission wavelength of 590 nm to obtain relative fluorescence units. Data analysis was done by subtracting the background fluorescence (only medium blank) value from each reading and then normalizing with the vehicle control (DMSO treated cells) to obtain percent survival/proliferation. Percent survival was then subtracted by 100 to get the percent inhibition of proliferation which was used to calculate IC50 values.

The test system of a further experiment is A427 cells. The experiment in a line: Cytotoxicity assay (resazurin) in A427 cells. Format: cell-based. The note with it: Homo sapiens, A-427, 72 h, A427, 72 hr, read-out: Cell Viability IC50 A427. The method, then:
as §1

Bounds are passed on as bounds.

WEE1 kinase enzyme, sequence (P30291 whole entry): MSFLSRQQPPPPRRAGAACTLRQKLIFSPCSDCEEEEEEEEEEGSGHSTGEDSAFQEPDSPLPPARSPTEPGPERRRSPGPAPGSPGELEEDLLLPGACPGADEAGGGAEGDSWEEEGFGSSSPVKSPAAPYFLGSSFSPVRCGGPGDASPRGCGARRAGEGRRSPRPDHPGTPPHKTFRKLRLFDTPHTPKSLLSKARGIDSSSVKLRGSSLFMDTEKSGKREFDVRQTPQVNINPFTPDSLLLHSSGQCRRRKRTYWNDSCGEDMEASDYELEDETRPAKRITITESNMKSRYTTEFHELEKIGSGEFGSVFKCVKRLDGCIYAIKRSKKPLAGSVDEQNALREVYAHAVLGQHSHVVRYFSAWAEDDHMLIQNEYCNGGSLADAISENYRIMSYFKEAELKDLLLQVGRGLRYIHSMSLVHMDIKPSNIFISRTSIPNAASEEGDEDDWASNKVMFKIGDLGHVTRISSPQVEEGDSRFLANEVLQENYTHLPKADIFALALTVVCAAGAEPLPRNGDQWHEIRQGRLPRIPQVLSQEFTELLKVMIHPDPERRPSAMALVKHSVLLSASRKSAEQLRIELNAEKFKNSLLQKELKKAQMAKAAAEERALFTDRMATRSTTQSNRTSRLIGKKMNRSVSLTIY

As for `C=CCn1c(=O)c2cnc(Nc3ccc4c(c3)CCNC4)nc2n1-c1cccc(C(C)(C)O)n1` [Example 1.8], the IC50 at WEE1 kinase enzyme is 0.001 µM; with A549 cells, 0.545 µM.

Take `C=CCn1c(=O)c2cnc(Nc3ccc4c(c3)CN(C)CC4)nc2n1-c1cccc(C(C)(C)O)n1` [Example 1.9]: the values for the IC50 at WEE1 kinase enzyme and in the experiment on A549 cells were 0.001 µM and 0.52 µM, respectively.

In the case of `CC(C)n1c(=O)c2cnc(Nc3ccc4c(c3)CNCC4)nc2n1-c1cccc(C(C)(C)O)n1` [Example 1.10], the 50% inhibitory concentration (IC50) on WEE1 kinase enzyme stood at 0.002 µM; in the experiment on A427 cells it was 0.34 µM; in the experiment on A549 cells it was 0.51 µM.

As for `CC(C)(O)c1cccc(-n2c3nc(Nc4ccc5c(c4)CNCC5)ncc3c(=O)n2CC2CC2)n1` [Example 1.11], the IC50 at WEE1 kinase enzyme turned out to be 0.002 µM; with A427 cells, 0.43 µM; in the experiment with A549 cells, 1.18 µM.

Regarding `CCn1c(=O)c2cnc(Nc3ccc4c(c3)CNCC4(C)C)nc2n1-c1cccc(C(C)(C)O)n1` [Example 1.13], the IC50 worked out at 0.0015 µM at WEE1 kinase enzyme, 1 µM in the experiment with A427 cells and 0.895 µM in the experiment with A549 cells.

Regarding `CCn1c(=O)c2cnc(Nc3ccc4c(c3)CN(C(=O)CO)CC4(C)C)nc2n1-c1cccc(C(C)(C)O)n1` [Example 1.14], the IC50 is 0.001 µM at WEE1 kinase enzyme and 1.62 µM in the experiment with A549 cells.

`CC(C)n1c(=O)c2cnc(Nc3ccc4c(c3)CNCC43CC3)nc2n1-c1ccnc(C(C)(C)C)c1` [Example 1.161]: the IC50 was 0.004 µM at WEE1 kinase enzyme and 0.24 µM in the experiment with A427 cells.

With `CC(C)n1c(=O)c2cnc(Nc3ccc4c(c3)CNCC4(C)C)nc2n1-c1ccnc(C(C)(C)C)c1` [Example 1.162], the IC50 at WEE1 kinase enzyme was 0.011 µM; in the experiment with A427 cells, 0.385 µM.

On to `CC(C)n1c(=O)c2cnc(Nc3ccc4c(c3)CCNC4)nc2n1-c1ccnc(C(C)(C)F)c1` [Example 1.163], for which the IC50 on WEE1 kinase enzyme is 0.015 µM; with A427 cells it was 0.72 µM.

`CC(C)n1c(=O)c2cnc(Nc3ccc4c(c3)CC(N(C)C)C4)nc2n1-c1ccnc(C(C)(C)C)c1` (stereo not shown) [Example 1.164]: the IC50 is 0.008 µM at WEE1 kinase enzyme and 0.485 µM with A427 cells.

With `CC(C)n1c(=O)c2cnc(Nc3ccc4c(c3)CNC4)nc2n1-c1ccnc(C(C)(C)C)c1` [Example 1.165], the figures for the IC50 at WEE1 kinase enzyme and with A427 cells were 0.014 µM and 1.57 µM, respectively.

In the case of `CC(C)n1c(=O)c2cnc(Nc3ccc4c(c3)CCNC4)nc2n1-c1ccc(F)cc1` [Example 1.166], the IC50 at WEE1 kinase enzyme is 0.029 µM; in the experiment with A427 cells it was 4.13 µM.

For the compound `CC(C)n1c(=O)c2cnc(Nc3ccc4c(c3)CNCC4)nc2n1-c1ccc(F)cc1` [Example 1.167], the IC50 at WEE1 kinase enzyme came out at 0.041 µM; with A427 cells, 2.06 µM.

For `CC(C)n1c(=O)c2cnc(Nc3ccc4c(c3)NCCC4)nc2n1-c1ccnc(C(C)(C)F)c1` [Example 1.168], the IC50 at WEE1 kinase enzyme turned out to be 4.15 µM; in the experiment with A427 cells, 4 µM.

For the compound `CC(C)n1c(=O)c2cnc(Nc3ccc4c(c3)CNCC4)nc2n1-c1ccnc(C(C)(C)F)c1` [Example 1.169], the results for the IC50 at WEE1 kinase enzyme and with A427 cells were 0.016 µM and 2.74 µM, respectively.

On to `CC(C)n1c(=O)c2cnc(Nc3ccc4c(c3)CCC(N(C)C)C4)nc2n1-c1ccnc(C(C)(C)C)c1` (stereo not shown) [Example 1.170, 1-(2-tert-butylpyridin-4-yl)-6-{[6-(dimethylamino)-5,6,7,8-tetrahydronaphthalen-2-yl]amino}-2-(propan-2-yl)-1H,2H,3H-pyrazolo[3,4-d]pyrimidin-3-one], for which the IC50 on WEE1 kinase enzyme was found to be 0.012 µM; in the experiment on A427 cells, 0.775 µM.

As to `CC(C)n1c(=O)c2cnc(Nc3ccc4c(c3)CC(N(C)C)CC4)nc2n1-c1ccnc(C(C)(C)C)c1` (stereo not shown) [Example 1.171], the values for the IC50 at WEE1 kinase enzyme and in the experiment on A427 cells were 0.006 µM and 0.735 µM, respectively.

Turning to `CC(C)n1c(=O)c2cnc(Nc3ccc4c(c3)CCNC4)nc2n1-c1ccnc(N(C)C)c1` [Example 1.172], the IC50 on WEE1 kinase enzyme came to 0.012 µM; with A427 cells, 1.35 µM.

As for `COC(=O)N1CCc2cc(Nc3ncc4c(=O)n(C(C)C)n(-c5ccnc(C(C)(C)C)c5)c4n3)ccc2C1` [Example 1.173], the IC50 on WEE1 kinase enzyme turned out to be 0.343 µM; in the experiment with A427 cells, 2.33 µM.

As for `CC(C)(C)c1cc(-n2c3nc(Nc4ccc5c(c4)CNCC5)ncc3c(=O)n2CC(F)(F)F)ccn1` [Example 1.174], the results for the IC50 at WEE1 kinase enzyme and in the experiment on A427 cells were 0.108 µM and 4 µM, respectively.

For `CC(C)n1c(=O)c2cnc(Nc3ccc4c(c3)CCNC4)nc2n1-c1ccc(N(C)C)c(C(C)(C)C)c1` [Example 1.175], the figures for the IC50 at WEE1 kinase enzyme and with A427 cells were 0.156 µM and 1.16 µM, respectively.

For `CC(C)n1c(=O)c2cnc(Nc3ccc4c(c3)CCNC4(C)C)nc2n1-c1ccnc(C(C)(C)C)c1` [Example 1.176], the IC50 at WEE1 kinase enzyme amounted to 0.008 µM; in the experiment on A427 cells, 0.595 µM.

As to `CC(C)n1c(=O)c2cnc(Nc3ccc4c(c3)CCNC4)nc2n1-c1ccnc(N(C)S(C)(=O)=O)c1` [Example 1.177], the half-maximal inhibitory concentration (IC50) is 0.012 µM on WEE1 kinase enzyme and 1.97 µM with A427 cells.

For `CC(C)n1c(=O)c2cnc(Nc3ccc4c(c3)CCNC4)nc2n1-c1ccnc(C(C)(C)O)c1` [Example 1.178], the IC50 on WEE1 kinase enzyme stood at 0.014 µM; in the experiment on A427 cells it was 6.2 µM.

In the case of `CC(C)n1c(=O)c2cnc(Nc3ccc4c(c3)CCNC4)nc2n1-c1ccc(F)c(C(C)(C)O)c1` [Example 2.185], the IC50 on WEE1 kinase enzyme was determined as 0.034 µM; in the experiment with A427 cells it was 1.54 µM.

For `CC(C)n1c(=O)c2cnc(Nc3ccc4c(c3)CNCC4)nc2n1-c1ccc(F)c(C(C)(C)O)c1` [Example 2.186], the IC50 came to 0.024 µM on WEE1 kinase enzyme and 0.905 µM in the experiment on A427 cells.

Take `CC(C)n1c(=O)c2cnc(Nc3ccc4c(c3)CCNC4(C)C)nc2n1-c1ccnc(C(C)(C)F)c1` [Example 2.187]: the IC50 on WEE1 kinase enzyme stood at 0.012 µM; in the experiment with A427 cells, 0.435 µM.

Regarding `CC(C)n1c(=O)c2cnc(Nc3ccc4c(c3)CNCC4)nc2n1-c1ccn(C2CC2)n1` [Example 2.189], the figures for the IC50 at WEE1 kinase enzyme and with A427 cells were 0.043 µM and 1.99 µM, respectively.

With `CC(C)n1c(=O)c2cnc(Nc3ccc4c(c3)CNCC4)nc2n1-c1cc(C(C)(C)C)ccn1` [Example 2.287], the IC50 at WEE1 kinase enzyme turned out to be 0.12 µM; in the experiment with A427 cells it was 1.96 µM.

As to `CC(C)n1c(=O)c2cnc(Nc3ccc4c(c3)CCNC4)nc2n1-c1cc(C(C)(C)C)ccn1` [Example 2.288], the values for the IC50 on WEE1 kinase enzyme and in the experiment on A427 cells were 0.217 µM and 2.58 µM, respectively.

On to `CC(C)n1c(=O)c2cnc(Nc3ccc4c(c3)CCNC4)nc2n1-c1ccn(C)n1` [Example 2.289], for which the IC50 on WEE1 kinase enzyme worked out at 0.049 µM; with A427 cells, 8.76 µM.

As to `CC(C)n1c(=O)c2cnc(Nc3ccc4c(c3)CCNC4)nc2n1-c1ccc(F)cn1` [Example 2.290], the IC50 was 0.09 µM on WEE1 kinase enzyme and 3.37 µM with A427 cells.

For `CC(C)n1c(=O)c2cnc(Nc3ccc4c(c3)CNCC4)nc2n1-c1ccc(F)cn1` [Example 2.291], the IC50 was determined as 0.046 µM on WEE1 kinase enzyme and 7.99 µM in the experiment on A427 cells.

On to `CC(C)n1c(=O)c2cnc(Nc3ccc4c(c3)CNCC4)nc2n1-c1ccn(C)n1` [Example 2.292], for which the IC50 at WEE1 kinase enzyme worked out at 0.043 µM; with A427 cells it was 13.3 µM.

Take `COC(C)(C)c1cc(-n2c3nc(Nc4ccc5c(c4)CCNC5)ncc3c(=O)n2C(C)C)ccn1` [Example 2.293]: the IC50 was over 3.65 µM at WEE1 kinase enzyme and over 30 µM in the experiment with A427 cells.

On to `CC(C)(F)c1cc(-n2c3nc(Nc4ccc5c(c4)CNCC5(C)C)ncc3c(=O)n2C2CC2)ccn1` [Example 2.605], for which the IC50 is 0.123 µM at WEE1 kinase enzyme and 5.96 µM with A427 cells.

For `CC(C)n1c(=O)c2cnc(Nc3ccc4c(c3)CCNC4(C)C)nc2n1-c1cccc(N(C)S(C)(=O)=O)n1` [Example 2.642], the figures for the IC50 on WEE1 kinase enzyme and with A427 cells were 0.006 µM and 2.46 µM, respectively.

`CC(C)n1c(=O)c2cnc(Nc3ccc4c(c3)CCNC4(C)C)nc2n1-c1ccn(C2CC2)n1` [Example 2.643]: the IC50 at WEE1 kinase enzyme was found to be 0.026 µM; in the experiment with A427 cells, 2.18 µM.

As for `CC(C)n1c(=O)c2cnc(Nc3ccc4c(c3)CCN(C)C4)nc2n1-c1ccnc(C(C)(C)C)c1` [Example 2.644], the IC50 came to 0.005 µM at WEE1 kinase enzyme and 2.33 µM in the experiment on A427 cells.

In the case of `CC(C)n1c(=O)c2cnc(Nc3ccc4c(c3)CCNC4)nc2n1-c1cccc(N(C)S(C)(=O)=O)n1` [Example 2.645], the IC50 was 0.005 µM on WEE1 kinase enzyme and 4.01 µM in the experiment with A427 cells.

Consider `CC(C)n1c(=O)c2cnc(Nc3ccc4c(c3)CNCC4(C)C)nc2n1-c1ccn(C2CC2)n1` [Example 2.646], for which the IC50 is 0.015 µM on WEE1 kinase enzyme and 4.37 µM in the experiment on A427 cells.

With `CC(C)n1c(=O)c2cnc(Nc3ccc4c(c3)CCNC4)nc2n1-c1ccsc1` [Example 2.647], the results for the IC50 on WEE1 kinase enzyme and in the experiment with A427 cells were 0.01 µM and 2.65 µM, respectively.

In the case of `CC(C)n1c(=O)c2cnc(Nc3ccc4c(c3)CNCC4)nc2n1-c1cccc(C(C)(C)C#N)n1` [Example 3.035], the IC50 was determined as 0.002 µM at WEE1 kinase enzyme and 0.42 µM with A427 cells.

`CC(C)n1c(=O)c2cnc(Nc3ccc4c(c3)CCNC4)nc2n1-c1cccc(C(C)(C)C#N)n1` [Example 3.036]: the IC50 at WEE1 kinase enzyme was determined as 0.005 µM; with A427 cells it was 0.25 µM.
